# Reference: ChEMBL document CHEMBL1201862, “PubChem BioAssay data set” (2004)
# Calls of active or inactive are those of the source.
# Legend:
# Large T antigen = Large T antigen (Simian virus 40, UniProt P03070); type: functional, Betapolyomavirus macacae;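 further: Confirmatory-stage PubChem screen for compounds that inhibit SV40 T antigen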
# [1] = molecular target: Induced myeloid leukemia cell differentiation protein Mcl-1 (Homo sapiens, UniProt Q07820); type: functional
# [2] = molecular target: T1, Mannose-6-phosphate isomerase (Homo sapiens, UniProt P34949); assay: MPI inhibition at elevated mannose 6-phosphate – biochemical, fluorescence intensity, high mannose 6-phosphate, primary screen (AID 1220)
# T1 sequence (P34949 whole entry): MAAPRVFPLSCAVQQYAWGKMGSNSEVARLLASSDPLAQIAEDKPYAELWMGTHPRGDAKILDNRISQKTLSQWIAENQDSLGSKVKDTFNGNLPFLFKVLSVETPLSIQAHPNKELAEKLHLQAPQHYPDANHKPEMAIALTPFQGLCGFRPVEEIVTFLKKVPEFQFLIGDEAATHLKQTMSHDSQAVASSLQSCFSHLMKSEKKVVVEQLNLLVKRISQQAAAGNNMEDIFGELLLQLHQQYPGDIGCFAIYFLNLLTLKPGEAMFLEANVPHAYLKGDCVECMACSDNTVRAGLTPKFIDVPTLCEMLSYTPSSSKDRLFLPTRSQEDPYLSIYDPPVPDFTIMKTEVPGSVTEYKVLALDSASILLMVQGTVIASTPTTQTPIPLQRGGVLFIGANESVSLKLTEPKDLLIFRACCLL
# [3] = molecular target: T2, Peroxisome proliferator-activated receptor gamma/Nuclear receptor coactivator 3 (Homo sapiens, UniProt P37231); assay: TR-FRET dose response biochemical High Throughput Screening assay for agonists of the steroid receptor coactivator 3 (SRC-3) recruitment by the peroxisome proliferator-activated receptor gamma (PPAR gamma): non-selective agonists. [Related pubchem assays: 1301 (Confirmation screen.), 1048 (Primary screen.)]; type: functional
# [4] = molecular target: T3, Peroxisome proliferator-activated receptor gamma/Nuclear receptor coactivator 2 (Homo sapiens, UniProt P37231); assay: (§1) TR-FRET dose response biochemical High Throughput Screening assay for agonists of the steroid receptor coactivator 2 (SRC-2) recruitment by the peroxisome proliferator-activated receptor gamma (PPAR gamma): non-selective agonists. [Related pubchem assays: 1297, 1032 ]; type: functional
# [5] = molecular target: T4, Peroxisome proliferator-activated receptor gamma/Nuclear receptor coactivator 1 (Homo sapiens, UniProt P37231); assay: as §1, with “1 (SRC-1)” for “2 (SRC-2)”, “assays (depositor defined):AID1300, AID1808, AID504735, AID631]” for “assays: 1297, 1032 ]”; type: protein assay
# [6] = molecular target: T4, Peroxisome proliferator-activated receptor gamma/Nuclear receptor coactivator 1; type: functional
# [7] = molecular target: T3, Peroxisome proliferator-activated receptor gamma/Nuclear receptor coactivator 2; type: functional
# [8] = molecular target: T2, Peroxisome proliferator-activated receptor gamma/Nuclear receptor coactivator 3; type: functional
# [9] = molecular target: Dual specificity tyrosine-phosphorylation-regulated kinase 1A (Rattus norvegicus, UniProt Q63470); type: biochemical, Homo sapiens
# Prothrombin = Prothrombin (Homo sapiens, UniProt P00734); assay: Thrombin 1536 HTS Dose Response Confirmation. [Related pubchem assays: 1046 (Thrombin 1536 HTS; hits were confirmed in this assay)]; type: functional
# [10] = molecular target: Eukaryotic translation initiation factor 4E (Mus musculus, UniProt P63073); assay: blockers of eIF4G binding by eIF4E – biochemical, TR-FRET, dose response (AID 855); type: functional;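 further: potency for disrupting eIF4E binding to eIF4GI seen as loss of FRET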
# [11] = molecular target: DNA dC->dU-editing enzyme APOBEC-3G (Homo sapiens, UniProt Q9HC16); assay: Dose Response confirmation of small molecule APOBEC3G DNA Deaminase Inhibitors via a fluorescence-based single-stranded DNA deaminase assay. [Related pubchem assays (depositor defined):AID493012, AID493028]; type: functional
# Estrogen receptor = molecular target: T5, Estrogen receptor (Homo sapiens, UniProt P03372);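 further: potency for inhibiting coactivator peptide recruitment to the receptor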
# T5 sequence (P03372 whole entry): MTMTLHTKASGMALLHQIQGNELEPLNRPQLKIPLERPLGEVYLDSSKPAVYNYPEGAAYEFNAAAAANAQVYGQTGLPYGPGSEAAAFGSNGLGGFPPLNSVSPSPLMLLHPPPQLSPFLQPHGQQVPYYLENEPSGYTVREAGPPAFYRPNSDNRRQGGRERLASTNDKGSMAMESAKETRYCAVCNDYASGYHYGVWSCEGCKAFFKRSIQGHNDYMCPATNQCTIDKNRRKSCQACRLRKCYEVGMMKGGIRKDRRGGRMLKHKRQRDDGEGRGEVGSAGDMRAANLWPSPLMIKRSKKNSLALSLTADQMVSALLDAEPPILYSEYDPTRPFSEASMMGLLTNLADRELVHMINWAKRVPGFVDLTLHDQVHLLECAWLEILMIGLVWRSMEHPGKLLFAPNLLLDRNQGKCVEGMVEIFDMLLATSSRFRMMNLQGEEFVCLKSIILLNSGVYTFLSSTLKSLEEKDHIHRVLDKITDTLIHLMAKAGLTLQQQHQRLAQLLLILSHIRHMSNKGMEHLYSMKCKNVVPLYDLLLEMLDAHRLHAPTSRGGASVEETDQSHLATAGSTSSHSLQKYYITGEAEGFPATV
# [12] = molecular target: Voltage-dependent T-type calcium channel subunit alpha-1H (Homo sapiens, UniProt O95180); type: functional;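 further: channel activity triggered by adding a high calcium stimulation buffer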
# Escherichia coli = assay: microbe, parasite or virus in culture
# CAAX prenyl protease 2 = molecular target: T6, CAAX prenyl protease 2 (Saccharomyces cerevisiae S288c, UniProt Q03530); type: biochemical
# T6 sequence (Q03530 whole entry): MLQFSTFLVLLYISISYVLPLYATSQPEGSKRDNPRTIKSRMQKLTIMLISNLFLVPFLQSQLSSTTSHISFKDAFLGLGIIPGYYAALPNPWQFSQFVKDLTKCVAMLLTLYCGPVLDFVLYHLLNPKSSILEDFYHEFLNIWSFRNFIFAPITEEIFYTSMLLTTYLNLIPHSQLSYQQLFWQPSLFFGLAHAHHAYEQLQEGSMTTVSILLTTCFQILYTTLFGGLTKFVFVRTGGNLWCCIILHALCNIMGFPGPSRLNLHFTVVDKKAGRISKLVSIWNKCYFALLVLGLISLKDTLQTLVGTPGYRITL
# Estrogen receptor beta = Estrogen receptor beta (Homo sapiens, UniProt Q92731);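 further: recombinant ER-beta bound to coactivator SRC1 peptide in presence of estradiol agonist; inhibitors block coactivator peptide binding and lower the FRET signal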
# Cytochrome P450 2C9 [13] = molecular target: T7, Cytochrome P450 2C9 (Homo sapiens, UniProt P11712)
# Cytochrome P450 3A4 = Cytochrome P450 3A4 (Homo sapiens, UniProt P08684);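 further: CYP3A4 tested as one member of a cytochrome P450 panel screen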
# Cytochrome P450 2C9 [14] = molecular target: T7, Cytochrome P450 2C9; remark: listed apart in the source
# [15] = molecular target: T8, Alkaline phosphatase, tissue-nonspecific isozyme (Homo sapiens, UniProt P05186); assay: potency against alkaline phosphatase TNAP – biochemical, luminescent, dose response, SAR follow-up (AID 1056)
# T8 sequence (P05186 whole entry): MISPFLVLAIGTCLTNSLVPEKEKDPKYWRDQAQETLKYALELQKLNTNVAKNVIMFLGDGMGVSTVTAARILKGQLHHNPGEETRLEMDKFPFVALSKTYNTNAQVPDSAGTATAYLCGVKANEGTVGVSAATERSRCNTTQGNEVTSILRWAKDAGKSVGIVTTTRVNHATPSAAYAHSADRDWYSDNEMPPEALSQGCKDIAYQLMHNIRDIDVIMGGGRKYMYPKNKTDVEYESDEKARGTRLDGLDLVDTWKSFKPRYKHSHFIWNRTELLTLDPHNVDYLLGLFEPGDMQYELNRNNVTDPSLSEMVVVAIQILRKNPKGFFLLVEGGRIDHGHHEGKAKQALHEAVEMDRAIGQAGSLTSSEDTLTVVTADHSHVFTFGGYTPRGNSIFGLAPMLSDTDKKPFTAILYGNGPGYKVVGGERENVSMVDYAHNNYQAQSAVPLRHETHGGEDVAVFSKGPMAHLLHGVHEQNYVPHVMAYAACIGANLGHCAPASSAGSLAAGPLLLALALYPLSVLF
# [16] = molecular target: Glyceraldehyde-3-phosphate dehydrogenase (Homo sapiens, UniProt P04406)
# Cytochrome P450 2C19 = Cytochrome P450 2C19 (Homo sapiens, UniProt P33261); assay: Cytochrome panel assay with activity outcomes. Panel member name: p450-cyp2c19 Compounds with AC50 equal or less than 10 uM are considered active; type: functional; details: read-out: AC50
# [17] = molecular target: FAD-linked sulfhydryl oxidase ALR (Homo sapiens, UniProt P55789); assay: ALR-catalysed DTT oxidation blockers – biochemical, H2O2 detection, luminescence, cherry-pick, dose response (AID 493248)
# Sequence of FAD-linked sulfhydryl oxidase ALR (P55789 whole entry): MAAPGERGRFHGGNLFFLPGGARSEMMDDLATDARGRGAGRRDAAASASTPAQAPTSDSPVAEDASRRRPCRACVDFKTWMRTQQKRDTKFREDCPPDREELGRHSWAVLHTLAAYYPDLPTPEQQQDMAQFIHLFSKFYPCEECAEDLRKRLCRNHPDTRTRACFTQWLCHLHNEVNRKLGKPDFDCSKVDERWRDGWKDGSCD
# Sequence of Glyceraldehyde-3-phosphate dehydrogenase (P04406 whole entry): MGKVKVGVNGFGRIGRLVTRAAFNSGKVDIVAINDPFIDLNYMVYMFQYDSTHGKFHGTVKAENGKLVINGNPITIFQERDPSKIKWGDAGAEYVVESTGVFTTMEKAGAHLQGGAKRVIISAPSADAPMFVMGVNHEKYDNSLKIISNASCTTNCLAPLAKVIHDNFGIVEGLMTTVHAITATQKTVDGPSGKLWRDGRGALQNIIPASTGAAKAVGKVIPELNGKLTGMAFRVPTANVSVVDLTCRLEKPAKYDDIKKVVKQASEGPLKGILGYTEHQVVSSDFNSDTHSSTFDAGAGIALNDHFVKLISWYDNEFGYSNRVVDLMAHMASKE
# T4 sequence (P37231 whole entry): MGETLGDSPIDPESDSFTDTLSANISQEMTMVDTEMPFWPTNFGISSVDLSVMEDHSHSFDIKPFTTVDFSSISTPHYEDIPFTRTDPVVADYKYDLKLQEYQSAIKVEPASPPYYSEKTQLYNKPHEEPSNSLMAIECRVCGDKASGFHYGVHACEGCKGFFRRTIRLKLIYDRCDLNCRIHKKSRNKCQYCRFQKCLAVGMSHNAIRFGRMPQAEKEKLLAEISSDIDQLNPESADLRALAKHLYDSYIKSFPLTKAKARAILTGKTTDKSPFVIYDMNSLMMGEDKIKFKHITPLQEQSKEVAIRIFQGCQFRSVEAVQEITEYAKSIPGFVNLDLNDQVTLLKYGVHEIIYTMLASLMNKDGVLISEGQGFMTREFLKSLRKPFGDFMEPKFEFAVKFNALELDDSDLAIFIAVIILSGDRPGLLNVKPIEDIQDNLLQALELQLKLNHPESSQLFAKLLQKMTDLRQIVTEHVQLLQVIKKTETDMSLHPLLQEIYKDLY
# T4 sequence (Q15788 whole entry, further chain): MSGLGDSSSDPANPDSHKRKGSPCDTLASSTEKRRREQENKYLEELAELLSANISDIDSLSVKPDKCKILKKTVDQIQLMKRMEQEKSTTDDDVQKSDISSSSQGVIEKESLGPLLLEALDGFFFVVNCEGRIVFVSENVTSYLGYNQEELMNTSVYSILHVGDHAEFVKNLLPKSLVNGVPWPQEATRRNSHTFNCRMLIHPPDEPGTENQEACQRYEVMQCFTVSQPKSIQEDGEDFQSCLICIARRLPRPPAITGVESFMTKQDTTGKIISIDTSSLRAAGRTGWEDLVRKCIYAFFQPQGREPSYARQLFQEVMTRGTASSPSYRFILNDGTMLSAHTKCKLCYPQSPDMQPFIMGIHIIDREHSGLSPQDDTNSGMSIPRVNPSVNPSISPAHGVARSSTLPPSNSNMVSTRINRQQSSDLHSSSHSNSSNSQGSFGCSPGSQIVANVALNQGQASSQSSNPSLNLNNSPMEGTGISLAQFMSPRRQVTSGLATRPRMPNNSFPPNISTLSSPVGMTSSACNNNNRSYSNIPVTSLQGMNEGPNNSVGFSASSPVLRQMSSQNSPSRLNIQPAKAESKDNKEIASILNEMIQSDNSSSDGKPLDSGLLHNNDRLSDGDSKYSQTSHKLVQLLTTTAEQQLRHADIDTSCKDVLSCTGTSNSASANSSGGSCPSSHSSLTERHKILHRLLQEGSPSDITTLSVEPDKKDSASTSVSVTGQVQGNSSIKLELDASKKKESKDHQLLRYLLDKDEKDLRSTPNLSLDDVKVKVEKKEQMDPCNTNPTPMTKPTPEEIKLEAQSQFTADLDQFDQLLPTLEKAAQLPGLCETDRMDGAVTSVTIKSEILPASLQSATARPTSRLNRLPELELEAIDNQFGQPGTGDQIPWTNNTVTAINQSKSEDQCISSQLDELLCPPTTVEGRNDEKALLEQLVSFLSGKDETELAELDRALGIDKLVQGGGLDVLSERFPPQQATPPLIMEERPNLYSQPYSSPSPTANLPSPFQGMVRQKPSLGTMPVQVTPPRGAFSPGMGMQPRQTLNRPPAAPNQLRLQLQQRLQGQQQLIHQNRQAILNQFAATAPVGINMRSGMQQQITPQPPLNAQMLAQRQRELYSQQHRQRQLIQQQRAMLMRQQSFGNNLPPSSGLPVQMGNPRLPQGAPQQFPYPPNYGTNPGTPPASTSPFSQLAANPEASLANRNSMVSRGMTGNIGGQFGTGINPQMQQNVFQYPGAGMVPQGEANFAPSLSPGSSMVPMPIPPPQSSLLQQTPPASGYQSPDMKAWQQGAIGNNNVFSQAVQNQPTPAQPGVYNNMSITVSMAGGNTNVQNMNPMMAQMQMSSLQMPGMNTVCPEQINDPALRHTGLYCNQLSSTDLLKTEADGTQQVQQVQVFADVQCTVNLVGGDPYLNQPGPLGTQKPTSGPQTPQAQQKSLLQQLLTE
# T3 sequence (P37231 whole entry): as the sequence (P37231 whole entry) above
# T3 sequence (Q15596 whole entry, further chain): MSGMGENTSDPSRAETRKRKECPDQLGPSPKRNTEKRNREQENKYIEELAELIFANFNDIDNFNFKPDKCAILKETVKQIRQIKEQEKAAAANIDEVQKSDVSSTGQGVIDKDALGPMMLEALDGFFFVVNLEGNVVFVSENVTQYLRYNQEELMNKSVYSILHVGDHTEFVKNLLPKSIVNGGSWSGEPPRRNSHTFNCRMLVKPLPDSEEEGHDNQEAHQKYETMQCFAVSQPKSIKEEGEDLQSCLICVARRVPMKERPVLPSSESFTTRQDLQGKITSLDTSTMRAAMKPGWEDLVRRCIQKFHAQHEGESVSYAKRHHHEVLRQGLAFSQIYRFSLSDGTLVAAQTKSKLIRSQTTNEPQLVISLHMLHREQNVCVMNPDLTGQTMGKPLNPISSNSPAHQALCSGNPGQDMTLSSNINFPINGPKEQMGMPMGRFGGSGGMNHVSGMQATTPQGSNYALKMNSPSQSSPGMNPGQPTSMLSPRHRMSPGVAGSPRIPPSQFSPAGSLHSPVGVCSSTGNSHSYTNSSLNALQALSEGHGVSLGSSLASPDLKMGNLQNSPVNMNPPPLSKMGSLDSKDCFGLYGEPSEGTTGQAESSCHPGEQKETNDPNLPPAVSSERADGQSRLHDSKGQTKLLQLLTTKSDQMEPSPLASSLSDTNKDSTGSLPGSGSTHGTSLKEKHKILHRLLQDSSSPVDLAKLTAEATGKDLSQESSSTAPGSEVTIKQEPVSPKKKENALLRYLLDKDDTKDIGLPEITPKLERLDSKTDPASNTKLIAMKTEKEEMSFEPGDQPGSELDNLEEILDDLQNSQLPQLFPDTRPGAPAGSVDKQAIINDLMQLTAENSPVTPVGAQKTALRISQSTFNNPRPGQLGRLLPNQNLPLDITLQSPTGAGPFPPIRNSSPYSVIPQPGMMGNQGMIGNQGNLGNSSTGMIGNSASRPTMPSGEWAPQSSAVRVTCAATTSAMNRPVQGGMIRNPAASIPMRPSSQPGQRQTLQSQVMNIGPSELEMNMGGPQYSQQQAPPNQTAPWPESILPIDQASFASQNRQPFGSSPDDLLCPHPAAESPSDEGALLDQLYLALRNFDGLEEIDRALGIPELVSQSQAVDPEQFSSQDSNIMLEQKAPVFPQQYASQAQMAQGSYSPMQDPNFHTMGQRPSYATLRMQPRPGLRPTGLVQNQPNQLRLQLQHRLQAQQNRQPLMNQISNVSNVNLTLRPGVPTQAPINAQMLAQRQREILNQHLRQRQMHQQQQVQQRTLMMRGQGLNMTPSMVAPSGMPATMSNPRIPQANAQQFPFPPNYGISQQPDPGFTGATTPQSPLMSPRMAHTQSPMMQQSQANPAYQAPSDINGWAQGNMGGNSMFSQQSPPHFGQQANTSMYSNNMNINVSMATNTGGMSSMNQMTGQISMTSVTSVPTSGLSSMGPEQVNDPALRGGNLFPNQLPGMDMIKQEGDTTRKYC
# Sequence of Estrogen receptor beta (Q92731 whole entry): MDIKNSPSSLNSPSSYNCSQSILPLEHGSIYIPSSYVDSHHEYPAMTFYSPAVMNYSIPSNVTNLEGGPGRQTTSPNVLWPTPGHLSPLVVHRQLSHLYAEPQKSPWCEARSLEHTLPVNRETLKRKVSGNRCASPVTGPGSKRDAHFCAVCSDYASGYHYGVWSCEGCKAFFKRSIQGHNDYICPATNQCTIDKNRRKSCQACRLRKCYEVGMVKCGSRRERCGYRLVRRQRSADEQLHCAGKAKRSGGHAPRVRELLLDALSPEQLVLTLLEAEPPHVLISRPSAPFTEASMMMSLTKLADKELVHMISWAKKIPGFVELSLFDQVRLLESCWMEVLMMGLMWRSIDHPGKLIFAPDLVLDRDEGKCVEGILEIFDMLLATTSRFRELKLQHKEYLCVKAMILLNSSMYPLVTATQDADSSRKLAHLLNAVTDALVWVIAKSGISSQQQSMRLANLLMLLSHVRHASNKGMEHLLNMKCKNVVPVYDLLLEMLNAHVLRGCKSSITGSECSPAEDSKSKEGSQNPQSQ
structure (smiles),measurement,setting,value
COc1ccc(N2CCC(CNC(=O)Nc3cccc(OC)c3)C2)cc1 (stereo unspecified),IC50,Large T antigen,43.3 µM (active)
same,IC50,[1],3.18 µM (not active)
same,IC50,[2],> 50 µM (not active)
Cn1c(S)nnc1-c1sc2cc(C(F)(F)F)cnc2c1-c1cccs1,EC50,[3],34 µM (not active)
same,EC50,[4],12.6 µM (not active)
same,EC50,[5],6.65 µM (active)
COc1ccc(C(=O)C(C)(C)NO)cc1,EC50,[6],> 79.4 µM (not active)
same,EC50,[7],> 79.4 µM (not active)
same,EC50,[8],> 79.4 µM (not active)
C[N+](C)(CCOc1ccccc1)Cc1ccccc1.O=C([O-])c1cc2ccccc2c(Br)c1O,AC50,[9],0.517 µM (active)
O=C(NCc1ccco1)c1cnc2ccc(S(=O)(=O)N3CCOCC3)cc2c1O,IC50,Prothrombin,0.943 µM (active)
Clc1ccc(Cl)c(-c2nn3c(COc4ccccc4)nnc3s2)c1,IC50,[10],> 64 µM (inactive)
same,IC50,[11],37 µM (active)
COc1ccc(-c2cc(-c3cccs3)c(C#N)c(SCC(=O)NCc3ccco3)n2)cc1,IC50,Estrogen receptor,> 50 µM (not active)
CCCn1cc(SCC(=O)Nc2ccc3c(c2)OCO3)c2ccccc21,EC50,[12],5.11 µM (active)
O=C(Nc1ccccc1Cl)C1CCN(Cc2cnn(-c3ccccc3)c2-n2cccc2)CC1,EC50,[12],2.74 µM (active)
CN(CCCNC(=O)CSc1cc(=O)n(C)c2ccc(Cl)cc12)Cc1ccccc1,EC50,[3],> 79.4 µM (not active)
same,EC50,[4],> 79.4 µM (not active)
same,EC50,[5],> 79.4 µM (inactive)
COc1cc(OC)c(C2CC(=O)N3CN(C)CSC3=C2C#N)cc1OC (stereo unspecified),IC50,Large T antigen,61.1 µM (active)
same,IC50,[2],23.1 µM (active)
CC(=O)Nc1cccc(NC(=O)c2cc3ccccc3o2)c1,AC50,[9],11.5 µM (active)
Cn1c(=O)cc(SCC(=O)NCCCN2CCN(c3ccccc3F)CC2)c2ccccc21,EC50,[3],> 79.4 µM (not active)
same,EC50,[4],> 79.4 µM (not active)
same,EC50,[5],> 79.4 µM (inactive)
Cc1ccc(C)c(NC(=O)CCN2CCc3ccccc3C2)c1,AC50,Escherichia coli,58.7 µM (active)
Cc1cc2cc(CCNC(=O)c3c(-c4ccccc4Cl)noc3C)c(=O)[nH]c2cc1C,EC50,[12],4.77 µM (active)
CN(C)CCN(C(=O)c1ccc2ccccc2c1)c1nc2ccc(F)cc2s1,AC50,CAAX prenyl protease 2,6.44 µM (active)
CCOc1ccc(C(=O)CCN2CCCCC2)cc1,IC50,Estrogen receptor beta,> 50 µM (not active)
O=C(CSc1cccc(C(F)(F)F)c1)NC(=O)NCc1ccco1,IC50,Estrogen receptor,> 50 µM (not active)
same,EC50,[12],1.67 µM (active)
CCOC(=O)c1c(NC(=O)CSc2nnc(CNc3ccc(F)cc3)o2)sc(C(C)=O)c1C,EC50,[6],54.3 µM (not active)
same,EC50,[7],42.5 µM (not active)
same,EC50,[8],> 79.4 µM (not active)
N#Cc1c(-c2ccccc2)cc(C2CC2)nc1SCC(=O)c1cccs1,EC50,[3],20.6 µM (not active)
same,EC50,[4],7.18 µM (active)
same,EC50,[5],7.51 µM (active)
same,AC50,Cytochrome P450 2C9 [13],44.7 nM (inconclusive)
same,AC50,Cytochrome P450 3A4,14.1 µM (inconclusive)
CC(C(=O)NCc1ccc2c(c1)OCO2)N1c2cccc3cccc(c23)S1(=O)=O (stereo unspecified),EC50,[12],9.35 µM (active)
same,AC50,Cytochrome P450 2C9 [14],inconclusive
O=C(O)c1cc(-c2ccc(O)cc2)n[nH]1,IC50,[15],14 µM (active)
same,IC50,[16],> 100 µM (not active)
O=C(Oc1ccc2c(c1)OCC2=O)c1ccccc1,IC50,Estrogen receptor beta,> 50 µM (not active)
COc1ccc(-c2cc(C(=O)O)n[nH]2)cc1,IC50,[15],6.72 µM (active)
same,IC50,[16],> 100 µM (not active)
COc1cccc(Cc2nnc(N3C(=O)[C@H]4CC=CC[C@H]4C3=O)[nH]2)c1,IC50,[15],2.48 µM (active)
same,IC50,[16],> 100 µM (not active)
O=C(NCc1ccccn1)c1cn(-c2ccccc2)nc1-c1ccc(Cl)cc1,IC50,Prothrombin,> 50 µM (not active)
COc1ccc(/C=C/C(=O)OCc2cc(=O)n3c(n2)sc2ccccc23)cc1,AC50,Escherichia coli,> 150 µM (inactive)
COc1cccc(C(=O)n2c(SC)nc3cc4c(cc32)OCCO4)c1,AC50,Cytochrome P450 2C19,35.5 µM (inconclusive)
same,IC50,Prothrombin,0.0235 µM (active)
O=C(NCc1ccccc1)c1[nH]cnc1C(=O)N1CCN(c2ccccc2)CC1,AC50,Escherichia coli,38.8 µM (active)
same,AC50,[17],6.21 µM (active)
Cc1ccc(C(=O)N2CC2C)cc1 (stereo unspecified),AC50,Escherichia coli,25.4 µM (active)
CCc1nc(/C=C2\C(=O)Nc3ccccc32)c[nH]1,AC50,[9],10.5 µM (active)
C(=N\c1cccc2c(/N=C/c3ccco3)cccc12)/c1ccco1,IC50,[2],> 50 µM (not active)
COc1cccc(/C=c2/s/c(=C(\C#N)C(=O)N3CCOCC3)n(-c3ccccc3)c2=O)c1,EC50,[6],> 79.4 µM (not active)
same,EC50,[7],> 79.4 µM (not active)
same,EC50,[8],> 79.4 µM (not active)
CC(CO)(CO)NCc1ccc(-c2ccccc2)cc1,IC50,Prothrombin,> 50 µM (not active)
